From patent US6147097A, “Imidazole derivatives as anti-HIV agents” (Shionogi & Co., Ltd., priority 1994, dated 2000) come the findings set out here.

The test system of one series is HIV (HTLV-IIIB strain). The series is described as follows: microbe, parasite or virus in culture. Particulars: Human immunodeficiency virus 1, IIIB, MT4, 120 h. Type of series: cell-based. The essentials:
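MT-4 cells (3.5×10^4 per well) were infected with HIV at 60 pfu per well in the presence of diluted compound and incubated for 5 days at 37° C. Surviving cells were then measured by MTT reduction, with the formazan dissolved in acidified isopropanol containing Triton X-100.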

Series [1] is described as follows: cytotoxicity in MT-4 cells (MTT, culture medium in place of HIV). Type of series: cell-based. Particulars: human. The procedure, abridged: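 MT-4 cells (3.5×10^4 per well) exposed to diluted compound with culture medium added instead of HIV, 5 days at 37° C in CO2. MTT added for 1 h, formazan dissolved in Triton X-100/acidified isopropanol. OD read at 560 nm (690 nm reference) and compared with control.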

Series [2] deals with T1, purified recombinant HIV-1 reverse transcriptase (Human immunodeficiency virus type 1 group M subtype B, UniProt P04585).
T1 construct: purified recombinant HIV-1 reverse transcriptase; made in house; host or cells: Escherichia coli
The experiment in a line: reverse transcriptase inhibition, poly(rA)/(dT) template primer, [3H]dTTP uptake. Type of series: biochemical. The procedure, abridged:
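Inhibition reported as percent reduction of [3H]dTTP incorporation relative to solvent control, after 1 h at 37 °C at pH 8.3. Recombinant RT from E. coli, poly(rA) template with oligo(dT) primer, 4 μM unlabeled dTTP as substrate; product collected on DEAE filter mats.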

Where [3] appears, read: MT-4 cells, 60 pfu HIV per well, 37° C., 5 days, MTT, Tables 1 and 2, read-out: EC50.
The mark [4] stands for this setting: MT-4 cells, no virus, 37° C., 5 days, MTT, Table 3, read-out: CC50.

In brackets after ≈: the same amount, converted by molar mass. Read-outs that look alike come from different tables or passages of the source.

As for `CC(C)c1nc(COC(N)=O)n(Cc2cccnc2)c1Sc1cc(Cl)cc(Cl)c1` [Compound I-92, 2-carbamoyloxymethyl-5-(3,5-dichlorophenylthio)-4-isopropyl-1-(pyridin-3-yl)methyl-1H-imidazole], the EC50 (commonly the concentration at which the effect is half-maximal) in the series on HIV (HTLV-IIIB strain) came to 0.001 µg/mL (≈ 0.00222 µM). In series [1] (mt-4 cells), the CC50 (usually the concentration giving 50% cytotoxicity) at 120 h was 12.5 to 24 µg/mL (≈ 27.7 to 53.2 µM). Moreover, in series [2], the IC50 (usually the midpoint of a concentration-inhibition curve) is 0.775 µM.
In the case of `CC(C)c1nc(CN)n(Cc2cccnc2)c1Sc1cc(Cl)cc(Cl)c1` [Compound I-94, 2-aminomethyl-5-(3,5-dichlorophenylthio)-4-isopropyl-1-(pyridin-3-yl)methyl-1H-imidazole], the EC50 with HIV (HTLV-IIIB strain) (setting [3]) stood at 0.03 µg/mL (≈ 0.0736 µM). Moreover, the CC50 at 120 h in series [1] (setting [4]) fell in the range of 12.5 to 25 µg/mL (≈ 30.7 to 61.4 µM). Moreover, the IC50 in series [2] was 4.66 µM.
Turning to `CC(C)c1nc(CN)n(Cc2ccccn2)c1Sc1cc(Cl)cc(Cl)c1` [Compound I-95], the EC50 in the series on HIV (HTLV-IIIB strain) (setting [3]) was 0.03 to 0.06 µg/mL (≈ 0.0736 to 0.147 µM). In series [1] (mt-4 cells), this compound returned a CC50 at 120 h of 6.3 µg/mL (≈ 15.5 µM). Also, the IC50 in series [2] is 1.74 µM.
In the case of `COC(=O)C(C)c1nc(C)n(C)c1Sc1cc(C)cc(C)c1` (stereo not drawn) [Compound I-96, methyl 2-[1,2-dimethyl-5-(3,5-dimethylphenylthio)-1H-imidazol-4-yl]propionate], the EC50 in the series on HIV (HTLV-IIIB strain) (setting [3]) came out at 0.03 µg/mL (≈ 0.0942 µM). Further, the CC50 at 120 h in series [1] (setting [4]) was in the range of 10 to 100 µg/mL (≈ 31.4 to 314 µM). Besides, the IC50 in series [2] was 14.4 µM.
For `Cc1nc(C(C)C#N)c(Sc2cccc(Cl)c2)n1C` (stereo not drawn) [Compound I-97, 2-[5-(3-chlorophenylthio)-1,2-dimethyl-1H-imidazol-4-yl]propiononitrile] the same measures were 0.06 to 0.13 µg/mL (≈ 0.206 to 0.445 µM), 10 to 100 µg/mL (≈ 34.3 to 343 µM) and 25.4 µM.
In the series on HIV (HTLV-IIIB strain), `CC(C#N)c1nc(COC(N)=O)n(C)c1Sc1cccc(Cl)c1` (stereo not drawn) [Compound I-98, 2-[2-carbamoyloxymethyl-5-(3-chlorophenylthio)-1-methyl-1H-imidazol-4-yl]propiononitrile] registered an EC50 of 1 µg/mL (≈ 2.85 µM). Moreover, the 50% cytotoxic concentration (CC50) at 120 h in series [1] (setting [4]) was 10 to 100 µg/mL (≈ 28.5 to 285 µM). Further, the IC50 in series [2] is 105 µM.
For the compound `Cc1nc(C(C)C(=O)O)c(Sc2cccc(Cl)c2)n1C` (stereo not drawn) [Compound I-99], in the series with HIV (HTLV-IIIB strain) (setting [3]), the EC50 worked out at 6.3 µg/mL (≈ 20.3 µM). The CC50 at 120 h in series [1] (setting [4]) is over 100 µg/mL. Besides, the IC50 in series [2] is over 322 µM.
The like results for `Cc1nc(C(C)C)c(Cc2cc(Cl)cc(Cl)c2)n1C` [Compound I-100, 5-(3,5-dichlorobenzyl)-1,2-dimethyl-4-isopropyl-1H-imidazole] were, in that order, 1 µg/mL (≈ 3.36 µM), 12.5 µg/mL (≈ 42.1 µM) and 42.1 µM.
Regarding `CC(C)c1nc(CN)n(C)c1Cc1cc(Cl)cc(Cl)c1` [Compound I-101, 2-aminomethyl-5-(3,5-dichlorobenzyl)-4-isopropyl-1-methyl-1H-imidazole], the EC50 in the series with HIV (HTLV-IIIB strain) (setting [3]) came out at 1 µg/mL (≈ 3.2 µM). In series [1] (setting [4]), the CC50 at 120 h was 10 to 100 µg/mL (≈ 32 to 320 µM). The IC50 in series [2] was 80.7 µM.
The like results for `CC(C)c1nc(CO)n(C)c1Cc1cccc(Cl)c1` [Compound I-102, [5-(3-chlorobezyl)-4-isopropyl-1-methyl-1H-imidazol-2-yl]methanol] were, in that order, 0.5 to 1 µg/mL (≈ 1.79 to 3.59 µM), 1 to 10 µg/mL (≈ 3.59 to 35.9 µM) and 86.4 µM.
On to `CC(C)c1nc(COC(N)=O)n(C)c1Cc1cc(Cl)cc(Cl)c1` [Compound I-103, 2-carbamoyloxymethyl-5-(3,5-dichlorobenzyl)-4-isopropyl-1-methyl-1H-imidazole], for which, in the series with HIV (HTLV-IIIB strain), a half-maximal response (EC50) required 0.5 µg/mL (≈ 1.4 µM). Besides, the CC50 at 120 h in series [1] (setting [4]) lay within 10 to 100 µg/mL (≈ 28.1 to 281 µM). Besides, the IC50 in series [2] is 19.1 µM.
Consider `Cc1cc(C)cc([S+]([O-])c2c(C(C)C)nc(C)n2C)c1` (stereo not drawn) [Compound I-104, 5-(3,5-dimethylphenylsulfinyl)-4-isopropyl-1,2-dimethyl-1H-imidazole], for which the EC50 with HIV (HTLV-IIIB strain) (setting [3]) was in the range of 1 to 10 µg/mL (≈ 3.44 to 34.4 µM). Moreover, the CC50 at 120 h in series [1] (setting [4]) lay in the range of 10 to 100 µg/mL (≈ 34.4 to 344 µM). Also, in series [2], the IC50 is over 344 µM.
The like results for `Cc1cc(C)cc(S(=O)(=O)c2c(C(C)C)nc(C)n2C)c1` [Compound I-105, 5-(3,5-dimethylphenylsulfonyl)-4-isopropyl-1,2-dimethyl-1H-imidazole] were, in that order, 0.5 µg/mL (≈ 1.63 µM), 50 to 100 µg/mL (≈ 163 to 326 µM) and 171 µM.
